Data from patent publication US20080070990A1, “USE OF RACTOPAMINE ENANTIOMERS” (STIRLING PRODUCTS LIMITED, priority 2006, published 2008).
Counter-ions that a name gives are not always drawn.

How the values were obtained:
rats [1] = assay: Neuropharmacological study in rats (Irwin test); assay type: in vivo; conditions: for drug-related stress, Irwin test: rats, oral
mice [2] = assay: Stress testing in mice, methodology of Aberg (U.S. Pat. No. 6,372,799); assay type: in vivo; conditions: preliminary results
mice [3] = assay: Spontaneous motor activity studies in mice; assay type: in vivo; conditions: oral
livestock animals = assay: Stress in livestock animals (applicant's findings); conditions: in vivo
animals = assay: Cardiovascular parameters in animals; assay type: in vivo; conditions: concentrations corresponding to doses suitable for growth promotion
rats [4] = conditions: cited from earlier work
[5] = target: adrenergic β1(h) receptor (Homo sapiens, UniProt P08588); assay: Affinity (Ki) for adrenergic β-receptors, β1; assay type: binding
Chain of adrenergic β1(h) receptor (P08588 whole entry): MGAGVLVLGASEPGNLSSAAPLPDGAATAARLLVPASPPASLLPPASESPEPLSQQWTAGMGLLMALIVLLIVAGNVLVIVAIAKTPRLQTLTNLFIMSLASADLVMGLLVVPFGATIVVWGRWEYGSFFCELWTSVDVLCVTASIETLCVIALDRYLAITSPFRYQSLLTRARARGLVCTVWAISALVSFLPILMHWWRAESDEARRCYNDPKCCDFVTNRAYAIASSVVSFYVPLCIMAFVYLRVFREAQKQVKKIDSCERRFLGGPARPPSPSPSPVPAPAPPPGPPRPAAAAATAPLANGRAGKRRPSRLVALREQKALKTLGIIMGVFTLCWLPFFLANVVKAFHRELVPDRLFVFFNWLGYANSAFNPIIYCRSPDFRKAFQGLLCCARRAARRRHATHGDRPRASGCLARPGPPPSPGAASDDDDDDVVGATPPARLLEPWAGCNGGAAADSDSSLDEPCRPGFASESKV

[6] = target: adrenergic B3 (h) receptor (Homo sapiens, UniProt P13945); assay: Affinity (Ki) for adrenergic β-receptors, β3; assay type: binding
Chain of adrenergic B3 (h) receptor (P13945 whole entry): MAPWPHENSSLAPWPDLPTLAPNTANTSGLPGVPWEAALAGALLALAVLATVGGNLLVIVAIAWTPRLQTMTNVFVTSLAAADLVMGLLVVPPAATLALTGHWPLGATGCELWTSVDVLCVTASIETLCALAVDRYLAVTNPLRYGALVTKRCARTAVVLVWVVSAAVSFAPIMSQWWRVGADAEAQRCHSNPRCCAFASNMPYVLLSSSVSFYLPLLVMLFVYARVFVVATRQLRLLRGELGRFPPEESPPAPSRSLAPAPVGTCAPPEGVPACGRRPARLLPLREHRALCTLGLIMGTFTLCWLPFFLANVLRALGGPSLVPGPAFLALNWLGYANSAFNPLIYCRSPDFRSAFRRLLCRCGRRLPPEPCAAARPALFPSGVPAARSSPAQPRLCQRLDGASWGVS

obese animals = assay: Weight loss in obese animals; conditions: in vivo
pigs = conditions: literature; cited from earlier work
[7] = test system: adrenergic beta-receptors in adipose tissue; conditions: animals exposed to racemic ractopamine; cited from earlier work
adrenergic beta-receptor = conditions: cited from earlier work

Row | Structure (SMILES) | drug-related stress, Irwin test (rats [1]) | drug-related stress, spontaneous motor activity (mice [3]) | affinity for beta-3 receptors (in words) [6] | stress in pigs / livestock animals (pigs) | adrenergic beta-receptor stimulating activity (adrenergic beta-receptor) | also measured
1 | C[C@H](CCc1ccc(O)cc1)NC[C@H](O)c1ccc(O)cc1.Cl (racemic) [RR-ractopamine, RR 4-Hydroxy-a [[[3-(4-hydroxyphenyl)-1-methylpropyl]amino]methyl]benzenemethanol hydrochloride] | do not show signs of drug-related stress | no signs of drug-related stress |  |  |  | CNS-mediated stress, stress testing in mice (mice [2]): not causing stress; stress as side effect in livestock animals (livestock animals): does not cause this side effect in livestock animals; effects on cardiovascular parameters (animals): failed to reveal detrimental effects on cardiovascular parameters; potency rank among the four stereoisomers in vivo (rats [4]): most potent
2 | CC(CCc1ccc(O)cc1)NCC(O)c1ccc(O)cc1 (racemic) [Ractopamine, 4-hydroxy-a-[[[3-(4-hydroxyphenyl)-1-methylpropyl]amino]methyl]benzenemethanol hydrochloride] | demonstrate stress | drug-related and CNS-mediated (“psychological”) stress | negligible affinity for beta-3 receptors | cause stress in livestock animals |  | Ki [5]: 0.26 µM; Ki [6]: 14 µM; weight loss in obese animals (obese animals): cause weight loss in obese animals; reduction of concentration of adrenergic beta-receptors in adipose tissue [7]: 50%
3 | CC(CCc1ccc(O)cc1)NCC(O)c1ccc(O)cc1 (single isomer, unassigned) [RS-enantiomer] |  |  |  |  | reduced beta-receptor activity when compared with RR-ractopamine | 
4 | C[C@H](CCc1ccc(O)cc1)NC[C@@H](O)c1ccc(O)cc1 (single isomer, unassigned) [SR-enantiomer] |  |  |  |  | reduced beta-receptor activity when compared with RR-ractopamine | 
5 | C[C@@H](CCc1ccc(O)cc1)NC[C@@H](O)c1ccc(O)cc1 (single isomer, unassigned) [SS-enantiomer] |  |  |  |  | completely devoid of adrenergic beta-receptor stimulating activity | 
6 | CC(C)(C)NC[C@H](O)c1ccc(O)c(CO)c1 [R-salbutamol] |  |  | negligible affinity for beta-3 receptors | does not induce stress in pigs |  | CNS-effects related to stress in laboratory animals (rats [1]; laboratory animals): not causing CNS-effects related to stress in laboratory animals
